Molecular target: T1, C5a anaphylatoxin chemotactic receptor 1 (Homo sapiens, UniProt P21730)
T1 sequence (P21730 whole entry): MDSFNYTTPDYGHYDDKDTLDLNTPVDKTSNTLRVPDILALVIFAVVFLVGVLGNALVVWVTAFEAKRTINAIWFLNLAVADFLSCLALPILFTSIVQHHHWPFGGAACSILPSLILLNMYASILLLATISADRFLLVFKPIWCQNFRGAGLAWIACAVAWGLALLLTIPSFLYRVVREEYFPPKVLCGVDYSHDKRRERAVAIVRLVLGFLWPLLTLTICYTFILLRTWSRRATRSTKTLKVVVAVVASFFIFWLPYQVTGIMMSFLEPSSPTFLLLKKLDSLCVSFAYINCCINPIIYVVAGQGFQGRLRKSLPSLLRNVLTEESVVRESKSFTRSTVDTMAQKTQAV
Assay: FLIPR Assay: Compounds were tested for their ability to inhibit C5a-mediated calcium mobilization using a stable cell line over expressing the human C5aR & the Galpha 15 protein on the FLIPR (Fluorescent Imaging Plate Reader) Tetra system. Cells were maintained in culture media containing DMEM (Dulbecco's Modified Eagle Medium) with 4.5 g/L glucose, 10% fetal bovine serum, 100 U/mL, 1x non-essential amino acid, and 250 ug/mL G418 (Geneticin). Prior to testing of compounds, cells were plated at 10,000 cells/well in clear bottom 384-well black plate, and incubated overnight at 37C. with 5% CO2. On the day of experiment, culture media was removed, and replaced with assay buffer HBSS (Hanks' Balanced Salt Solution) with 20 mM HEPES (4-(2-hydroxyethyl)-1-piperazineethanesulfonic acid) and 0.1% BSA (bovine serum albumin) BSA containing calcium 5 dye (Molecular Devices) and 2.5 mM probenecid. After 1 hour incubation at 37C., 5% CO2 for 60 min, cells were pre-incubated with compounds for 30 minutes.
Assay type: functional

Q: Which IC50 does the source give for CO[C@@H]1CCN(c2nc(-c3c(C)ccc4[nH]nc(C)c34)nc3c2CN(c2c(Cl)c(C(C)C)nn2C)CC3)[C@H](C)C1 here?
A: 2 nM

Q: With CO[C@H]1CCN(c2nc(-c3c(Cl)cnc4[nH]ccc34)nc3c2CN(c2cc(C4CC4)ccc2C)CC3)CC1(C)C as the compound, how does the IC50 read?
A: 47 nM
